Experimental findings from PubChem BioAssay (NCI) are described below.

Several values for one entry are separate records, joined by “and”; a condition that tells them apart may be missing. Equal entries are not always repeated.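 How tested: cells in 96-well plates exposed to compound for 48 hours at five concentrations. Abbreviation: GI50, concentration required for 50% inhibition of growth. The concentration for full growth arrest is given as TGI.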

Some test systems named below: MDA-MB-435; NCI-H460 lung; NCI-H522 lung; NCI/ADR-RES ovarian; OVCAR-5 ovarian; SN12C renal; T-47D breast; TK-10 renal; UACC-62 melanoma; IGROV1 ovarian.
What all share (assay): DTP human tumour cell line panel, 48 h

Consider `COc1cc(C(=O)N(C(=S)OC23CC4CC(CC(C4)C2)C3)c2ccccc2)cc(OC)c1OC`, for which the TGI is above 100 µM in the assay with MDA-MB-435; above 100 µM in the assay on NCI-H460 lung; 25.9 µM with NCI-H522 lung; above 100 µM in the assay on NCI/ADR-RES ovarian; above 100 µM in the assay with OVCAR-5 ovarian; above 100 µM with SN12C renal. Also, the concentration for total growth inhibition (TGI) in the assay with T-47D breast, in the assay with TK-10 renal and with UACC-62 melanoma was above 100 µM in each case.

Consider `CC1=CC(=O)/C(=C/N2C(=O)CNC2=S)C(=O)O1`, for which the concentration for total growth inhibition (TGI) in the assay with IGROV1 ovarian, with MDA-MB-435, in the assay on NCI-H460 lung, in the assay with NCI/ADR-RES ovarian, in the assay on OVCAR-5 ovarian and in the assay with SN12C renal was above 100 µM each time. In addition, the TGI in the assay on T-47D breast and in the assay with TK-10 renal was above 100 µM in each case.

As to `O=C1/C(=C\c2cccc(Oc3ccccc3)c2)SC(c2ccccc2)N1c1cccc(Cl)c1` (stereo unspecified), the TGI in the assay with MDA-MB-435, with NCI-H460 lung, in the assay with NCI/ADR-RES ovarian, in the assay with OVCAR-5 ovarian, with SN12C renal and in the assay with T-47D breast was above 100 µM each time. The TGI with TK-10 renal and with UACC-62 melanoma was above 100 µM in each case.

Consider `O=C(N[C@@H](Cc1ccccc1)B(O)O)[C@H](Cc1cccc2ccccc12)NC(=O)N1CCOCC1`, for which the TGI was 0.07 µM and 0.0754 µM in the assay on IGROV1 ovarian; 0.00103 µM in the assay with MDA-MB-435; 0.106 µM and 0.0579 µM in the assay with NCI-H460 lung; above 100 µM with NCI/ADR-RES ovarian; 0.0155 µM with OVCAR-5 ovarian; 0.0226 µM and 0.0268 µM with SN12C renal. The TGI in the assay on T-47D breast was 0.00368 µM; in the assay with TK-10 renal, 0.154 µM and 0.413 µM; in the assay on UACC-62 melanoma, 0.0119 µM and 0.0391 µM. Besides, the GI50 in the assay with NCI-H460 lung was 17.2 nM; in the assay on NCI/ADR-RES ovarian, 7.31 µM.

As to `N#Cc1c2ccc([N+](=O)[O-])cc2c(=O)n2c1sc1ccccc12`, the TGI in the assay on MDA-MB-435 was above 100 µM; with NCI-H460 lung, above 100 µM; with NCI/ADR-RES ovarian, 66.3 µM; in the assay with SN12C renal it was above 100 µM; in the assay with T-47D breast it was 71.4 µM; in the assay on TK-10 renal it was 55.8 µM. In the assay with UACC-62 melanoma, the TGI is above 100 µM.

As for `NS(=O)(=O)c1nnc(NC(=O)/C=C/C(=O)O)s1`, the TGI in the assay on MDA-MB-435, in the assay with NCI-H460 lung, in the assay on NCI-H522 lung, with NCI/ADR-RES ovarian, with OVCAR-5 ovarian and with SN12C renal was above 100 µM each time. Besides, the TGI with T-47D breast, with TK-10 renal and in the assay on UACC-62 melanoma was above 100 µM throughout.

With `COc1ccc(C(=O)N(Cc2cccnc2)C(=S)N(Cc2cccnc2)C(=O)c2ccc(OC)cc2)cc1`, the TGI in the assay on MDA-MB-435, in the assay on NCI-H460 lung, in the assay with NCI-H522 lung, in the assay on NCI/ADR-RES ovarian, in the assay with OVCAR-5 ovarian and with SN12C renal was above 100 µM in each case. Besides, the concentration for total growth inhibition (TGI) in the assay with T-47D breast, in the assay with TK-10 renal and in the assay with UACC-62 melanoma was above 100 µM each time.

As to `CC1(C)CC[C@]2(C(=O)O)CC[C@]3(C)C(=CC[C@@H]4[C@@]5(C)CC[C@H](OC6OC(CO)C(O)C(O)C6O)C(C)(C)[C@@H]5CC[C@]43C)[C@@H]2C1` (stereo partly specified), the total growth inhibition concentration (TGI) in the assay with IGROV1 ovarian stood at 3.06 µM; in the assay on MDA-MB-435, 3.39 µM; with NCI-H460 lung, 14.3 µM; in the assay on NCI-H522 lung, 2.91 µM; in the assay on NCI/ADR-RES ovarian, 22.9 µM; in the assay on OVCAR-5 ovarian, 4.12 µM. The figures for the TGI in the assay on SN12C renal, in the assay with T-47D breast and in the assay on UACC-62 melanoma were 3.07 µM, 3.55 µM and 3.28 µM, respectively.

In the case of `COc1cc(C2SCC(=O)N2NC(=O)c2ccc(NC(C)=O)cc2OC)ccc1O` (stereo unspecified), the TGI in the assay with IGROV1 ovarian was above 100 µM; with MDA-MB-435, above 100 µM; with NCI-H522 lung it was above 100 µM; in the assay with NCI/ADR-RES ovarian it was above 100 µM; with OVCAR-5 ovarian, 65.1 µM; in the assay with SN12C renal, 79.8 µM. Besides, the TGI in the assay on T-47D breast and with UACC-62 melanoma was above 100 µM in each case.

Consider `CNC(=O)OCC1=C(COC(=O)NC)C(C)N(c2ccccc2)C1` (stereo unspecified), for which the TGI was 98.4 µM in the assay on IGROV1 ovarian; 96.4 µM in the assay with MDA-MB-435; above 100 µM in the assay on NCI-H460 lung; above 100 µM with NCI/ADR-RES ovarian; 91.9 µM in the assay with OVCAR-5 ovarian; above 100 µM with SN12C renal. Further, the concentration for total growth inhibition (TGI) was above 100 µM in the assay with T-47D breast, above 100 µM in the assay with TK-10 renal and 68.8 µM in the assay on UACC-62 melanoma.

With `CCCCCCC(=O)c1ccc2ccccc2c1O`, the TGI in the assay on IGROV1 ovarian, with MDA-MB-435, in the assay on NCI-H460 lung, with NCI/ADR-RES ovarian, with T-47D breast and with TK-10 renal was above 100 µM each time. In the assay on UACC-62 melanoma, this compound came in with a TGI above 100 µM.

As to `CO/N=C(\C(=O)[N-][n+]1cnn(CC(=O)O)c1)c1csc(N)n1`, the TGI in the assay with IGROV1 ovarian, with NCI-H460 lung, with SN12C renal, with T-47D breast, in the assay with TK-10 renal and in the assay on UACC-62 melanoma was above 10 µM throughout.

As to `CCNC1=C(NC(=O)CCl)C(=O)c2ccccc2C1=O`, the TGI is above 10 µM in the assay with IGROV1 ovarian; 36.4 µM in the assay on MDA-MB-435; 57.4 µM in the assay with NCI-H460 lung; 32.2 µM in the assay on NCI-H522 lung; 44 µM with NCI/ADR-RES ovarian; 34.2 µM in the assay with OVCAR-5 ovarian. The TGI worked out at 32.8 µM with SN12C renal, 44.7 µM with T-47D breast and 31.5 µM in the assay with TK-10 renal.

For the compound `CCOc1cc(/C=C2\N=C(c3ccccc3)N(c3nc4ccccc4s3)C2=O)ccc1O`, the concentration for total growth inhibition (TGI) in the assay on IGROV1 ovarian was above 100 µM; with MDA-MB-435, above 100 µM; in the assay with NCI-H460 lung, above 100 µM; in the assay on NCI-H522 lung, 60 µM; in the assay on NCI/ADR-RES ovarian, 67.8 µM; in the assay on OVCAR-5 ovarian, above 100 µM. The concentration for total growth inhibition (TGI) in the assay with T-47D breast and in the assay with TK-10 renal was above 100 µM each time.

As to `C=C(C1=CC(=O)C(C)(C)O1)[C@@H]1CC=C([C@@H]2CC[C@H]3[C@@]2(C)CC[C@H]2C(C)(C)C(=O)[C@H](OC(=O)CC(C)(O)CC(=O)O)C[C@]32C)[C@H](O)O1` (stereo partly specified), the TGI stood at 26.3 µM in the assay on IGROV1 ovarian; 34.2 µM in the assay with MDA-MB-435; 40.7 µM with NCI-H460 lung; 25.4 µM in the assay with NCI-H522 lung; 51.3 µM in the assay on NCI/ADR-RES ovarian; 26.5 µM in the assay with OVCAR-5 ovarian. The results for the TGI with SN12C renal, with TK-10 renal and in the assay with UACC-62 melanoma were 28 µM, above 75 µM and 23.5 µM, respectively.
